Results taken from the supplement of paper PMC10883282.
± gives the standard deviation of the averaged measurements.

System: SW982
Experiment: relative viability vs DMSO control (72 h) (fraction); higher = more viable cells
How it was run: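 Serially diluted compound, 2.5 µl from source plates spanning 10 mM to 0.0002 mM, was added 24 h after sarcoma cell lines were seeded in 384-well plates at densities targeting 80–90% confluence. Plates then sat 72 h at 37 °C, 5% CO2, with 0.1% DMSO vehicle and a 5 µM positive control. Relative viability came from ATPLite as percent growth, averaged over up to triplicate wells, and was rescaled with 1 as full and 0 as none.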

| Structure (SMILES) | relative viability (0.00017 µM) | relative viability (0.00051 µM) | relative viability (0.00152 µM) | relative viability (0.00457 µM) | relative viability (0.01372 µM) | relative viability (0.04115 µM) | relative viability (0.1235 µM) | relative viability (0.3704 µM) | relative viability (1.111 µM) | relative viability (3.333 µM) | relative viability (10 µM) | relative viability (2 pM) | relative viability (5 pM) | relative viability (15 pM) | relative viability (50 pM) | relative viability (0.00014 µM) | relative viability (0.00041 µM) | relative viability (0.0012 µM) | relative viability (0.0037 µM) | relative viability (0.011 µM) | relative viability (200 fM) | relative viability (600 fM) |
| --- | --- | --- | --- | --- | --- | --- | --- | --- | --- | --- | --- | --- | --- | --- | --- | --- | --- | --- | --- | --- | --- | --- |
| C=CC(=O)N1CCC([C@@H]2CCNc3c(C(N)=O)c(-c4ccc(Oc5ccccc5)cc4)nn32)CC1 [Zanubrutinib] | 0.96 ± 0.026 | 0.968 ± 0.017 | 0.944 ± 0.03 | 0.958 ± 0.013 | 0.949 ± 0.027 | 0.96 ± 0.017 | 0.909 ± 0.019 | 0.893 ± 0.052 | 0.827 ± 0.025 | 0.771 ± 0.04 | 0.731 ± 0.045 | – | – | – | – | – | – | – | – | – | – | – |
| CCc1cc2c(cc1N1CCC(N3CCOCC3)CC1)C(C)(C)c1[nH]c3cc(C#N)ccc3c1C2=O [Alectinib] | 1.05 ± 0.043 | 1.06 ± 0.035 | 1.058 ± 0.0041 | 1.06 ± 0.026 | 1.04 ± 0.022 | 1.05 ± 0.017 | 1.032 ± 0.0038 | 1.05 ± 0.022 | 1.07 ± 0.019 | 1.06 ± 0.038 | 1.06 ± 0.046 | – | – | – | – | – | – | – | – | – | – | – |
| C[C@@H]1CCN(C(=O)CC#N)C[C@@H]1N(C)c1ncnc2[nH]ccc12 [Tofacitinib] | 1.01 ± 0.036 | 1.05 ± 0.03 | 1.04 ± 0.03 | 1.03 ± 0.031 | 1.07 ± 0.037 | 1.03 ± 0.05 | 1.05 ± 0.05 | 1.06 ± 0.035 | 1.05 ± 0.042 | 1.04 ± 0.034 | 0.93 ± 0.081 | – | – | – | – | – | – | – | – | – | – | – |
| CC[C@H](Nc1ncnc2[nH]cnc12)c1nc2cccc(F)c2c(=O)n1-c1ccccc1 [Idelalisib] | 1.06 ± 0.033 | 1.06 ± 0.039 | 1.05 ± 0.039 | 1.07 ± 0.027 | 1.07 ± 0.055 | 1.08 ± 0.033 | 1.07 ± 0.04 | 1.067 ± 0.0099 | 1 ± 0.029 | 0.948 ± 0.074 | 0.778 ± 0.011 | – | – | – | – | – | – | – | – | – | – | – |
| COc1cc2nccc(Oc3ccc(NC(=O)Nc4cc(C)on4)c(Cl)c3)c2cc1OC [Tivozanib] | 1.06 ± 0.039 | 1.07 ± 0.048 | 1.06 ± 0.021 | 1.05 ± 0.037 | 1.08 ± 0.038 | 1.07 ± 0.033 | 1.08 ± 0.017 | 1.08 ± 0.046 | 1.07 ± 0.058 | 0.985 ± 0.029 | 0.571 ± 0.021 | – | – | – | – | – | – | – | – | – | – | – |
| COc1cc2c(cc1O)CCN[C@]21CS[C@@H]2c3c(OC(C)=O)c(C)c4c(c3[C@H](COC1=O)N1[C@@H]2[C@H]2c3c(cc(C)c(OC)c3O)C[C@@H]([C@@H]1O)N2C)OCO4 [Trabectedin] | – | – | – | – | – | – | – | – | – | – | – | 0.929 ± 0.036 | 0.86 ± 0.035 | 0.765 ± 0.031 | 0.639 ± 0.034 | 0.385 ± 0.021 | 0.266 ± 0.0099 | 0.194 ± 0.0051 | 0.186 ± 0.0075 | 0.1406 ± 0.00098 | 0.987 ± 0.031 | 0.9423 ± 0.004 |
| N#CC[C@H](C1CCCC1)n1cc(-c2ncnc3[nH]ccc23)cn1 [Ruxolitinib] | 0.96 ± 0.072 | 0.971 ± 0.05 | 0.964 ± 0.049 | 0.949 ± 0.054 | 0.939 ± 0.058 | 0.919 ± 0.061 | 0.915 ± 0.019 | 0.879 ± 0.02 | 0.842 ± 0.015 | 0.7741 ± 0.005 | 0.614 ± 0.022 | – | – | – | – | – | – | – | – | – | – | – |
| Cc1cc(C)c(/C=C2\C(=O)Nc3ccccc32)[nH]1 [Semaxanib] | 1.02 ± 0.03 | 1.02 ± 0.031 | 0.997 ± 0.022 | 0.9929 ± 0.0051 | 0.968 ± 0.011 | 0.96 ± 0.029 | 0.947 ± 0.03 | 0.933 ± 0.011 | 0.904 ± 0.02 | 0.879 ± 0.028 | 0.821 ± 0.041 | – | – | – | – | – | – | – | – | – | – | – |
| O=C(Cc1ccc(-c2ccc(OCCN3CCOCC3)cc2)cn1)NCc1ccccc1 [KX2-391] | 1.01 ± 0.037 | 1.07 ± 0.021 | 1.06 ± 0.04 | 1.06 ± 0.013 | 1.037 ± 0.0061 | 0.661 ± 0.02 | 0.299 ± 0.019 | 0.269 ± 0.017 | 0.265 ± 0.023 | 0.2804 ± 0.00064 | 0.278 ± 0.0036 | – | – | – | – | – | – | – | – | – | – | – |
| COc1cc2c(Oc3ccc4[nH]c(C)cc4c3F)ncnc2cc1OCCCN1CCCC1 [Cediranib] | 1.04 ± 0.034 | 1.058 ± 0.007 | 1.06 ± 0.044 | 1.06 ± 0.027 | 1.06 ± 0.031 | 1.04 ± 0.013 | 1.06 ± 0.029 | 0.967 ± 0.07 | 0.914 ± 0.077 | 0.959 ± 0.012 | 0.961 ± 0.01 | – | – | – | – | – | – | – | – | – | – | – |
